Measurements from patent US20240239790A1, “7-Morpholino-1,6-Naphthyridin-5-yl Derivatives and Pharmaceutical Compositions Thereof Useful as DNA-PK Inhibitor” (adMare Therapeutics Society, priority 2021, published 2024).
Like-named read-outs stand apart in the source and are kept apart here.

Assay: Pharmacokinetic study in male Sprague-Dawley rats (IV and PO), plasma
Assay type: in vivo, rat
Conditions: for AUC(0-t) / Cmax at 5 min / half-life / AUC(0-inf): male, Sprague-Dawley; for AUC(0-t) / Cmax at 5 min / half-life / AUC(0-inf) / AUC—% Extrap—obs / Cl_obs / Vz_obs: rat plasma; for AUC(0-inf): read-out: AUCINF—obs; for F: rat
Experimental: Pharmacokinetic studies were conducted to estimate plasma concentrations obtained after oral gavage (PO) and intravenous (IV) single administration of compounds administered to male Sprague-Dawley rats. Six (6) rats were administered for each compound, route and dose, and plasma was collected at 12 timepoints over a 24 hr period for IV, and 12 timepoints over a 48 hr period for PO. Note that plasma was collected from only 3 animals per timepoint (n=3 for timepoints up to 10 hours, and n=3 for timepoints from 16 h to end of study). Dosing volumes were 5 mL/kg for IV and 10 mL/kg for PO gavage. IV compounds for administration were in solutions, whereas PO compounds were in solution or suspension.
The in-vivo study plasma samples were analyzed using Ultra Performance Liquid Chromatography (UPLC) with tandem mass spectrometry (MS/MS) detection in multiple reaction monitoring (MRM) mode. A generic bioanalytical method involving plasma sample extraction and cleanup by protein precipitation with acetonitrile was used followed by UPLC-MS/MS analysis.
A brief example of a generic bioanalytical UPLC-MS/MS method used for analysis of compounds in the in-vivo study plasma samples is as follows. Plasma samples were spiked with internal standard prior to extraction and cleanup by protein precipitation with ice cold acetonitrile containing 0.1% (v/v) ammonium hydroxide at a ratio of 3:1 (solvent:plasma) and centrifuged at 18213 rcf for 15 minutes at 4° C. to pellet precipitates. Aliquots of supernatants were transferred to a 96-well plate and evaporated to dryness at 40° C. under a stream of nitrogen gas. Samples were reconstituted in 50:50 acetonitrile/10 mM ammonium acetate buffer pH 8, mixed thoroughly and analyzed using Ultra Performance Liquid Chromatography (UPLC) with tandem mass spectrometry (MS/MS) detection in multiple reaction monitoring (MRM) mode. Matrix-matched calibration standards and quality control (QC) samples were prepared in naïve C57Bl/6 mouse plasma. The UPLC column used was Waters Acquity UPLC BEH C18 1.7 um, 2.1 mm×50 mm (with guard column). The UPLC mobile phase consisted of: Mobile phase A: 10 mM ammonium acetate in Water pH 8, and Mobile phase B: Acetonitrile. Separation was accomplished with a linear gradient of 5% mobile phase B to 95% mobile phase B in 2 min, and a flow rate of 0.35 mL/min. The MS/MS data acquisition was accomplished using 3 MRM Transitions in ESI+ mode. Parent ion mass 508.37 m/z-to-Daughter ions (m/z) 117.05, 232.13 and 270.22. The quantitation of concentrations in test samples was achieved by matrix-matched calibration with normalization using an internal standard. Data acquisition and analysis were performed using Waters MassLynx software with TargetLynx application manager.
Estimation of PK parameters was performed using independent noncompartmental model method by PHOENIX WinNonlin software.

| Structure (SMILES) | AUC(0-t) (IV, 3 mg/kg) | Cmax at 5 min (IV, 3 mg/kg) | half-life (IV, 3 mg/kg) | AUC(0-inf) (IV, 3 mg/kg) | AUC(0-t) (PO, 3 mg/kg) | Cmax at 5 min (PO, 3 mg/kg) | half-life (PO, 3 mg/kg) | AUC(0-inf) (PO, 3 mg/kg) | AUC(0-t) (PO, 10 mg/kg) | Cmax at 5 min (PO, 10 mg/kg) | half-life (PO, 10 mg/kg) | AUC(0-inf) (PO, 10 mg/kg) | AUC(0-t) (PO, 30 mg/kg) | Cmax at 5 min (PO, 30 mg/kg) | half-life (PO, 30 mg/kg) | AUC(0-inf) (PO, 30 mg/kg) | AUC—% Extrap—obs (IV, 3 mg/kg) | Cl_obs (IV, 3 mg/kg) | Vz_obs (IV, 3 mg/kg) | AUC—% Extrap—obs (PO, 3 mg/kg) | other results |
| --- | --- | --- | --- | --- | --- | --- | --- | --- | --- | --- | --- | --- | --- | --- | --- | --- | --- | --- | --- | --- | --- |
| O=C(COc1cnc(N[C@H]2CC[C@@H](Oc3nc(N4CCOCC4)cc4ncccc34)CC2)nc1)N1CCOCC1 [Compound 61, 1-Morpholino-2-((2-(((1s,4s)-4-((7-morpholino-1,6-naphthyridin-5-yl)oxy)cyclohexyl)amino)pyrimidin-5-yl)oxy)ethan-1-one] | 912 ng·h/mL | 1600 ng/mL | 1.49 h | 913 ng·h/mL | 241 ng·h/mL | 87.5 ng/mL | 5.68 h | 330 ng·h/mL | 1070 ng·h/mL | 235 ng/mL | 2.64 h | 1220 ng·h/mL | 5760 ng·h/mL | 655 ng/mL | 13.7 h | 15800 ng·h/mL | 0.10% | 54.761 mL/min/kg | 7.05679 L/kg | 26.80% | Cl_obs (PO, 3 mg/kg): 151.581 mL/min/kg; Vz_obs (PO, 3 mg/kg): 74.5443 L/kg; AUC—% Extrap—obs (PO, 10 mg/kg): 12.39%; Cl_obs (PO, 10 mg/kg): 136.306 mL/min/kg; Vz_obs (PO, 10 mg/kg): 31.192 L/kg; AUC—% Extrap—obs (PO, 30 mg/kg): 63.5%; Cl_obs (PO, 30 mg/kg): 31.6652 mL/min/kg; Vz_obs (PO, 30 mg/kg): 37.65453 L/kg; F (PO, 3 mg/kg): 26%; F (PO, 10 mg/kg): 35%; F (PO, 30 mg/kg): 63% |
| CN1CCN(CCOc2cnc(N[C@H]3CC[C@@H](Oc4nc(N5CCOCC5)cc5ncccc45)CC3)nc2)CC1 [Compound 69, 5-(2-(4-Methylpiperazin-1-yl)ethoxy)-N-((1s,4s)-4-((7-morpholino-1,6-naphthyridin-5-yl)oxy)cyclohexyl)pyrimidin-2-amine] | 488 ng·h/mL | 183 ng/mL | 4.82 h | 501 ng·h/mL | 305 ng·h/mL | 27.2 ng/mL | 2.81 h | 308 ng·h/mL | 1550 ng·h/mL | 140 ng/mL | 3.23 h | 1570 ng·h/mL | 5870 ng·h/mL | 482 ng/mL | 6.47 h | 5890 ng·h/mL | 2.61% | 99.8872 mL/min/kg | 41.64841 L/kg | 1.07% | Cl_obs (PO, 3 mg/kg): 162.417 mL/min/kg; Vz_obs (PO, 3 mg/kg): 39.5678 L/kg; AUC—% Extrap—obs (PO, 10 mg/kg): 1.16%; Cl_obs (PO, 10 mg/kg): 106.252 mL/min/kg; Vz_obs (PO, 10 mg/kg): 29.72118 L/kg; AUC—% Extrap—obs (PO, 30 mg/kg): 0.37%; Cl_obs (PO, 30 mg/kg): 84.9088 mL/min/kg; Vz_obs (PO, 30 mg/kg): 47.52784 L/kg; F (PO, 3 mg/kg): 62%; F (PO, 10 mg/kg): 95%; F (PO, 30 mg/kg): 120% |
| CN(C)C(=O)Cn1ccc2nc(N[C@H]3CC[C@@H](Oc4nc(N5CCOCC5)cc5ncccc45)CC3)ncc21 [Compound 86, N,N-Dimethyl-2-(2-(((1s,4s)-4-((7-morpholino-1,6-naphthyridin-5-yl)oxy)cyclohexyl)amino)-5H-pyrrolo[3,2-d]pyrimidin-5-yl)acetamide] | 371 ng·h/mL | 886 ng/mL | 0.67 h | 374 ng·h/mL | 71.6 ng·h/mL | 28.2 ng/mL | 2.59 h | 78.4 ng·h/mL | 1290 ng·h/mL | 203 ng/mL | 2.39 h | 1490 ng·h/mL | 14100 ng·h/mL | 1600 ng/mL | 1.26 h | 14100 ng·h/mL | 0.91% | 133.623 mL/min/kg | 7.72522 L/kg | 8.66% | Cl_obs (PO, 3 mg/kg): 637.8442 mL/min/kg; Vz_obs (PO, 3 mg/kg): 142.79445 L/kg; AUC—% Extrap—obs (PO, 10 mg/kg): 13.08%; Cl_obs (PO, 10 mg/kg): 111.962 mL/min/kg; Vz_obs (PO, 10 mg/kg): 23.13291 L/kg; AUC—% Extrap—obs (PO, 30 mg/kg): 0.0%; Cl_obs (PO, 30 mg/kg): 35.5335 mL/min/kg; Vz_obs (PO, 30 mg/kg): 3.87755 L/kg; F (PO, 3 mg/kg): 19%; F (PO, 10 mg/kg): 105%; F (PO, 30 mg/kg): 379% |
